Laboratory results from patent US6159953A, “Anti-malarial composition and method of use” (Catholic University of America, priority 1992, dated 2000).
Read-outs that look alike come from different tables or passages of the source.

Key:
[1] = test system: L-1210 mouse lymphocytic leukemia cells; assay: Toxicity to cultured L-1210 cells, number of viable cells; format: cell-based
Source text: 2. Effects of orotate analogues on cell viability and the ability to synthesize nucleic acids from radioactive precursors, and the rescuing effects of normal pyrimidine bases or nucleosides or amino acid derivatives such as histidinol, can be tested in human-derived tissue culture cell lines. Human HT-1080 human sarcoma cells [Rusheed, S., et al., Cancer, 33:1027-30 (1974)], human diploid IMR-90 cells [Nichols, W. W., et al., Science, 196:60-3 (1977)], human cervical […] HeLa S3 cells [Puck, T. T., et al., J. Exp. Med., 103:273-84 (1956)], HL-60 human myeloid leukemia cells [Collins, S. J., et al., Nature, 270:347-9 (1977)], and mouse leukemia L-1210 cells [Moore, G. E., J. Nat. […] The growth medium most suitable for each cell line can be determined by reference to the publications cited above: briefly, HT-1080 cells are maintained in Eagle's Minimal Essential Medium (EMEM) supplemented with 5% fetal bovine serum (FBS) and 2 mM L-glutamine; IMR-90 cells are grown in EMEM supplemented with 10% FBS, 10 mM Hepes buffer, 0.21% NaHCO3, and 2 mM L-glutamine. […]
Toxicity of pyrimidine analogues to cultured human cells is determined as follows. […] Thereafter, the number of cells in each well is determined. […] Cells that grow in suspension (e.g., HL-60 and L-1210 cells) are transferred to centrifuge tubes, pelleted at low speed, washed, and the viability determined as above. […]

[2] = Host toxicity in P. yoelii-infected mice (diarrhea, weight loss, tolerance); format: in vivo, Swiss white mice
Procedure: FIG. 6 illustrates the weight changes in mice receiving 5 mg/kg of 5-fluoro-orotate without (Δ) or with (.tangle-solidup.) uridine. The pyrimidine analogue was administered on days 3 to 6. The pyrimidine nucleoside was given to mice in experiment 2 on days 3 to 9. Data points represent mean weights of mice that remained alive during the course of experiments 1 and 2 (see FIG. 5C). Error bars represent standard deviations from the mean.
A second in vivo test system can be used to determine if repeated administration of the pyrimidine analogue would have safe anti-malarial activity. In this test system, groups of animals are infected with malaria parasites. At a time when blood parasitemia is reached, the animals are injected with saline alone (control) or with various concentrations of one or more pyrimidine analogues alone or together with one or more rescuing pyrimidine bases or nucleosides at a single concentration, at intervals, over a period of several days. In order to determine the prophylactic effectiveness of the rescuing pyrimidine base or nucleoside, the animals are pretreated with such a base or nucleoside prior to the administration of the pyrimidine analogue. Anti-malarial activity of the treatments is estimated by determining blood parasitemia on the animals at appropriate times. The safety of the treatments is estimated by monitoring animals for weight loss and diarrhea, as these are early symptoms of pyrimidine analogue toxicity [Houghton, J. A., et al., Cancer Res., 39:2406-13 (1979)].
Swiss white mice (25-30 g) were divided into groups of five. On day 0, each mouse was infected by intraperitoneal injection of 10^5 erythrocytic forms of P. yoelii. Starting on day 3, when the blood parasitemia had reached between 5 and 12%, the mice were injected intraperitoneally every 4 hours for three consecutive days with 200 μl of various formulations. In experiment 1, three groups of mice received 0.2, 1, or 5 mg/kg of 5-fluoro-orotate per injection, respectively. An accompanying control group received saline. In experiment 2, three groups of mice received 0.2, 1, or 5 mg/kg of 5-fluoro-orotate plus 800 mg/kg of uridine in a 200 μl saline formulation. An accompanying control group received 800 mg/kg of uridine alone. In experiment 2, mice were pretreated with one injection of 800 mg/kg of uridine two hours before receiving the first injection of 5-fluoro-orotate. Additionally, even though treatment with the pyrimidine analogue stopped on day 6, these mice continued to receive 1500 mg/kg of uridine, three times a day, for three additional days (i.e., up to day 9).

In the case of `O=C(O)c1[nH]c(=O)[nH]c(=O)c1F` [5-fluoro-orotate], the IC50 ([1]; L1210, L-1210, with 1 mM uridine, read-out: IC50 With 1 mM Uridine) is reported as 5 µM, the IC50 ([1]; L1210, L-1210, without uridine, read-out: IC50 Without Uridine) is reported as 2.8 µM and the “tolerance of highest dose” value ([2]; 5 mg/kg every 4 hours) is reported as “tolerated only when uridine was administered in combination with 5-fluoro-orotate”. The “mortality at higher doses” value ([2]; experiment 1, 1 and 5 mg/kg, no uridine) was “dose-dependent increase in mortality”, the “diarrhea in surviving mice” value ([2]; experiment 1, higher doses, no uridine) was “showed signs of diarrhea” and the weight loss ([2]; experiment 2, 5 mg/kg with uridine (FIG. 6)) was “no weight loss”. For the same compound, the diarrhea ([2]; experiment 2, with uridine) was “no mouse had diarrhea”.
